From US11292767B2, “Heterocyclic inhibitors of MCT4” (Vettore, LLC, priority 2016, dated 2022)

Assays:
[1] = Metabolic stability in mouse liver microsomes (in vitro t1/2); assay type: in vitro ADME; conditions: mouse liver microsomes 0.5 mg/mL, 2 μM compound; for Mouse microsome % 60 min: % remaining at 60 min; for Mouse microsome t1/2, min: in vitro t1/2
Experimental: (§1) Metabolic Stability Assays The following are assays that may be used to evaluate the metabolic stability of compounds of Formula (I) in human, rat, or mouse microsomes. The assays follow a common procedure recited below. 1. […] Two separated experiments were performed as follows. a) With NADPH: 10 μL of 20 mg/mL liver microsomes and 40 μL of 10 mM NADPH were added to the incubations. […] The final concentration of microsomes was 0.5 mg/mL. 3. The reaction was started with the addition of 4 μL of 200 μM control compound or test compound solutions. Verapamil was used as positive control in this study. The final concentration of test compound or control compound was 2 μM. 4. Aliquots of 50 μL were taken from the reaction solution at 0, 15, 30, 45 and 60 min. […] Samples were centrifuged at 3,220 g for 40 minutes. A 90 μL aliquot of the supernatant was mixed with 90 μL of ultra-pure H2O and then used for LC-MS/MS analysis. 5. Data analysis. All calculations were carried out using Microsoft Excel. Peak areas were determined from extracted ion chromatograms. The slope value, k, was determined by linear regression of the natural logarithm of the remaining percentage of the parent drug vs. incubation time curve. The in vitro half-life (in vitro t1/2) was determined from the slope value: in vitro t1/2=−(0.693)/k.

[2] = Metabolic stability in rat liver microsomes (in vitro t1/2); assay type: in vitro ADME; conditions: rat liver microsomes 0.5 mg/mL, 2 μM compound; for Rat microsome % 60 min: % remaining at 60 min
Experimental: as §1

[3] = Metabolic stability in human liver microsomes (in vitro t1/2); assay type: in vitro ADME; conditions: human liver microsomes 0.5 mg/mL, 2 μM compound; for Human microsome % 60 min: % remaining at 60 min
Experimental: as §1

[4] = Pharmacokinetic assay in rat (IV 3 mg/kg, PO 10 mg/kg); assay type: in vivo; conditions: male, Sprague-Dawley, plasma, read-out: Rat F (%)
Source text: Pharmacokinetic Assays in Mouse and Rat
The following are assays that may be used to evaluate the pharmacokinetic properties of Formula (I) in mouse or rat. The assays follow a common procedure recited below.
1. […] For PO (oral gavage), DMSO/PEG400 (10:90). Formulations freshly prepared on the day of dosing or prior to dosing. Storage at room temperature.
2. Test Species: For Mouse: Male CD1 strain, approximately 6-8 weeks in age, approximately 20-30 g. For Rat: Male Sprague-Dawley strain, approximately 6-8 weeks in age, approximately 200-300 g.
3. Dose Level: For IV, 3 mg/kg. For PO, 10 mg/kg.
4. Number of animals: 3 per assay.
5. PK time points: For IV (plasma): 5 min, 15 min, 1, 2, 4, 6, 8, 24 h post dose. For PO (plasma): 15 min, 30 min, 1, 2, 4, 6, 8, 24 h post dose.
6. Blood Sample Collection and Processing. Blood was collected (˜0.2 mL per time point) from jugular vein. Blood of each sample was transferred into plastic micro centrifuge tubes containing anticoagulant of EDTA-K2. Blood samples were centrifuged at 2,000 g for 5 minutes at 4° C. to obtain plasma.
7. Samples Analysis: Plasma samples were analyzed using LC/MS/MS method, and pharmacokinetic parameters (half-life: t1/2; oral bioavailability: F; volume of distribution: Vss).

CFA-induced arthritis [5] = assay: Adjuvant-induced arthritis model in rat: Mechanical Allodynia test (MA); assay type: in vivo; conditions: SD rat, PO 3 days post CFA, compared to dexamethasone
CFA-induced arthritis [6] = assay: Adjuvant-induced arthritis model in rat: Difference of Weight Bearing test (DWB); assay type: in vivo; conditions: SD rat, PO 3 days post CFA, compared to dexamethasone

| SMILES | Mouse microsome % 60 min [1] | Rat microsome % 60 min [2] | Human microsome % 60 min [3] | bioavailability [4] | Mechanical Allodynia (Von Frey), Minimal Efficacious Dose (CFA-induced arthritis [5]) | Difference in Weight Bearing, Minimal Efficacious Dose (CFA-induced arthritis [6]) | Mouse microsome t1/2, min [1] | Rat microsome t1/2, min ([2]; in vitro t1/2) | Human microsome t1/2, min ([3]; in vitro t1/2) |
| --- | --- | --- | --- | --- | --- | --- | --- | --- | --- |
| CCCn1ncc2ccc(-c3cc(COC(C)(C)C(=O)O)nn3-c3ccccc3N3CCC3)cc21 [Example 246, 2-([1-[2-(Azetidin-1-yl)phenyl]-5-(1-propyl-1H-indazol-6-yl)-1H-pyrazol-3-yl]methoxy)-2-methylpropanoic acid] | 81% | 69% | 65% | 52% | – | – | – | – | – |
| CC(C)(OCc1cc(-c2cccc(OC3CCC3)c2)n(-c2ccccc2Cl)n1)C(=O)O [Example 175, 2-([1-(2-Chlorophenyl)-5-(3-cyclo-butoxyphenyl)-1H-pyrazol-3-yl]-methoxy)-2-methylpropanoic acid] | 94% | 87% | 83% | 48% | >10 mg/kg | >10 mg/kg | – | – | – |
| COc1cc(OC)cc(-c2cc(COC(C)(C)C(=O)O)nn2-c2ccccc2Cl)c1 [Example 179, 2-([1-(2-Chlorophenyl)-5-(3,5-dimethoxyphenyl)-1H-pyrazol-3-yl]-methoxy)-2-methylpropanoic acid] | 98% | 85% | 93% | 76% | ≤10 mg/kg | ≤10 mg/kg | ∞ | – | – |
| Cn1ncc2cccc(-n3nc(COC(C)(C)C(=O)O)cc3-c3cccc(OC4CC4)c3)c21 [Example 191, 2-([5-(3-Cyclopropoxyphenyl)-1-(1-methyl-1H-indazol-7-yl)-1H-pyrazol-3-yl]methoxy)-2-methylpropanoic acid] | 97% | 94% | 98% | 97% | >10 mg/kg | >10 mg/kg | – | – | – |
| CC(C)(OCc1cc(-c2cccc(OC3CC3)c2)n(-c2ccc(F)cc2N2CCC2)n1)C(=O)O [Example 183, 2-([1-[2-(Azetidin-1-yl)-4-fluorophenyl]-5-(3-cyclopropoxyphenyl)-1H-pyrazol-3-yl]methoxy)-2-methylpropanoic acid] | 73% | 71% | 66% | – | – | – | – | – | – |
| CCOc1ccccc1Cn1nc(COC(C)(C)C(=O)O)cc1-c1cc(Cl)cc(OC)c1 [Example 196, 2-([5-(3-Chloro-5-methoxyphenyl)-1-[(2-ethoxyphenyl)methyl]-1H-pyrazol-3-yl]methoxy)-2-methylpropanoic acid] | 33% | 32% | 62% | – | – | – | – | – | – |
| CCOc1ccccc1Cn1nc(COC(C)(C)C(=O)O)cc1-c1cccc(OC2CC2)c1 [Example 201, 2-([5-(3-Cyclopropoxyphenyl)-1-[(2-ethoxyphenyl)methyl]-1H-pyrazol-3-yl]-methoxy)-2-methylpropanoic acid] | 58% | 39% | 58% | – | – | – | – | – | – |
| COc1cc(OC)cc(-c2cc(COC(C)(C)C(=O)O)nn2-c2ccccc2N2CCC2)c1 [Example 251, 2-((1-(2-(Azelidin-1-yl)phenyl)-5-(3,5-dimethoxyphenyl)-1H-pyrazol-3-yl)methoxy)-2-methylpropanoic acid] | 63% | 83% | 77% | 98% | – | – | – | – | – |
| CC(C)(C)COc1cccc(-c2cc(COC(C)(C)C(=O)O)nn2-c2ccccc2Cl)c1 [Example 177, 2-([1-(2-chlorophenyl)-5-[3-(2,2-dimethylpropoxy)phenyl]-1H-pyrazol-3-yl]methoxy)-2-methylpropanoic acid] | 87% | 90% | 75% | – | – | – | – | – | – |
| Cn1ncc2ccc(-c3cc(COC(C)(C)C(=O)O)nn3Cc3ccccc3Cl)cc21 [Example 226, 2-([1-[(2-Chlorophenyl)methyl]-5-(1-methyl-1H-indazol-6-yl)-1H-pyrazol-3-yl]methoxy)-2-methylpropanoic acid] | 95% | 88% | 95% | – | – | – | – | – | – |
| CC(C)Oc1ncc(-c2cc(COC(C)(C)C(=O)O)nn2Cc2ccccc2Cl)s1 [Example 133, 2-([1-[(2-Chlorophenyl)methyl]-5-[2-(propan-2-yloxy)-1,3-thiazol-5-yl]-1H-pyrazol-3-yl]methoxy)-2-methylpropanoic acid] | 90% | 91% | 97% | – | – | – | – | – | – |
| CCOc1ccccc1Cn1nc(COC(C)(C)C(=O)O)cc1-c1ccc2cnn(CC)c2c1 [Example 198, 2-([1-[(2-Ethoxyphenyl)methyl]-5-(1-ethyl-1H-indazol-6-yl)-1H-pyrazol-3-yl]methoxy)-2-methylpropanoic acid] | 84% | 82% | 80% | – | – | – | – | – | – |
| Cn1ncc2cccc(-n3nc(COC(C)(C)C(=O)O)cc3-c3cccc(OCC4CCC4)c3)c21 [Example 168, 2-([5-[3-(cyclobutylmethoxy)phenyl]-1-(1-methyl-1H-indazol-7-yl)-1H-pyrazol-3-yl]methoxy)-2-methylpropanoic acid] | 81% | 81% | 78% | – | – | – | – | – | – |
| Cn1ncc2cccc(-n3nc(COC(C)(C)C(=O)O)cc3-c3cccc(OC4CCC4)c3)c21 [Example 166, 2-([5-(3-Cyclobutoxyphenyl)-1-(1-methyl-1H-indazol-7-yl)-1H-pyrazol-3-yl]methoxy)-2-methylpropanoic acid] | 82% | – | 94% | – | – | – | – | ∞ | – |
| CC[C@@](C)(OCc1cc(-c2cc(OC)cc(OC)c2)n(-c2ccccc2Cl)n1)C(=O)O [Example 222, (2R)-2-([1-(2-Chlorophenyl)-5-(3,5-dimethoxyphenyl)-1H-pyrazol-3-yl]-methoxy)-2-methylbutanoic acid] | 94% | 90% | 110% | – | – | – | – | – | ∞ |
| COc1cc(OC)cc(-c2cc(COC(C)(C)C(=O)O)nn2Cc2ccccc2Cl)c1 [Example 224, 2-([1-[(2-Chlorophenyl)methyl]-5-(3,5-dimethoxyphenyl)-1H-pyrazol-3-yl]-methoxy)-2-methylpropanoic acid] | 98% | 73% | 91% | 53% | ≤10 mg/kg | ≤10 mg/kg | – | – | – |
| CC(C)(C)COc1cccc(-c2cc(COC(C)(C)C(=O)O)nn2-c2ccccc2N2CCC2)c1 [Example 155, 2-([1-[2-(Azetidin-1-yl)phenyl]-5-[3-(2,2-dimethylpropoxy)phenyl]-1H-pyrazol-3-yl]methoxy)-2-methylpropanoic acid] | 37% | 70% | 62% | – | – | – | – | – | – |
| CCOc1cc(OCC)cc(-c2cc(COC(C)(C)C(=O)O)nn2-c2ccccc2Cl)c1 [Example 180, 2-([1-(2-Chlorophenyl)-5-(3,5-diethoxy-phenyl)-1H-pyrazol-3-yl]methoxy)-2-methylpropanoic acid] | – | 98% | 88% | 49% | >10 mg/kg | >10 mg/kg | ∞ | – | – |
